Data as given in paper PMC11951083, “Highly Specific Miniaturized Fluorescent Monoacylglycerol Lipase Probes Enable Translational Research” (Journal of the American Chemical Society, 2025).
Converted amounts (≈) assume the structure as drawn.

Tests used:
[1] = High throughput kinetic solubility measurement; type: physicochemical; details: phosphate buffer, pH 6.5, aqueous buffer, kinetic from dmso stock
[2] = tested on: serine hydrolases in the mouse brain proteome (MBP); experiment: Multiplex ABPP in mouse brain proteome; type: biochemical; details: for labeling selectivity in ABPP (covalent probes): mouse brain homogenates, broad range of concentrations; for selectivity in competitive ABPP (reversible probes): mouse brain proteome, membrane and cytosolic fraction, 1 μM
Procedure: K = [L][P] = 0.5 [L]T (FP50 − 0.5 [L]T) = FP − 0.5 [L] […]
Mouse brain sample preparation
Mouse tissues were isolated according to guidelines approved by the ethical committee of Leiden University. Male mouse brain (27 weeks old) was homogenized with glass beads (2x 1 min, bullet blender, speed 8) using cold lysis buffer (20 mM Hepes pH 7.2, 1 mM MgCl 2, 2 U/mL Benzonase). The membrane and cytosol were separated by centrifugation. The membrane fraction was resuspended in Hepes/DTT buffer. Protein concentration was determined with Bradford Assay, and samples were diluted to a final concentration of 2.0 mg/mL. Samples were snap -frozen in liquid nitrogen and stored at -80 °C until further use.
Lysate (19 µL, 2 µg/µL) was thawed on ice. For comparative ABPP (irreversible probes), 1 µL of probe (20x stock in DMSO) or pure DMSO was added to the sample, vortexed briefly, and in cubated for 30 minutes at RT. For competitive ABPP (reversible probes), 0.5 µL of the reversible probe (40x stock in DMSO) or pure DMSO (as vehicle) was added to the sample, vortexed briefly, and incubated for 30 […]
minutes at RT. Subsequently, 0.5 µL MB064 (40x stock in DMSO) was added to the proteome sample, vortexed briefly, and incubated for 10 minutes at RT, after which 0.5 µL FP-Bodipy-FL (40x stock in DMSO) was added, vortexed briefly and incubated for 10 minutes at RT. The final volume was 20 - 20.5 µL (5 - 7.5% DMSO). The reaction was quenched by the addition of 7.5 µL of 4*Laemmli-buffer (final concentrations: 60 mM Tris (pH 6.8), 2% (w/v) SDS, 10% (v/v) glycerol, 1.25% (v/v) β-mercaptoethanol, 0.01% (v/v) bromophenol blue). 10 µL (14 µg protein) of the quenched reaction mixture was resolved on 10% acrylamide SDS-PAGE (180 V, 75 min). Fluorescence was measured using a Biorad ChemiDoc MP system (fluorescence channels Cy2, Cy3, Cy5). Gels were then stained using coomassie staining and imaged for protein loading control. Labeling of the respective proteins via MB064 and FP-BODIPY was visualized in two separate channels. […]
Activity based protein profiling (ABPP)
PBMCs were thawed, washed with 1 x PBS and equal amounts of cells were exposed to DMSO (D2650; Sigma-Aldrich) or MAGL inhibitor PF (PF-06795071) in DMSO for 30 min at room temperature with concentrations ranging from 1 nM to 1000 nM. Cells were washed with 1 x PBS and lysed in ice -cold lysis buffer (ab156035; Abcam), lysates were centrifuged at 14,000 x g for 15 minutes at 4°C and supernatants were collected. For ABPP experiments, cell lysates containing equal amounts of protein were incubated with the appropriate concentration of activity -based probe for 30 min at room temperature. The reaction was quenched for 30 min by adding SDS -PAGE loading buffer (NP0007, Thermo). Samples were then separated by SDS-PAGE and bands were detected ChemiDoc Imager (Bio-Rad Laboratories). Following detection, gels were stained with SimplyBlue™ SafeStain (LC6060, Thermo) for 1 hour with gentle agitation and excess stain was removed by destaining in ddH2O for 1 h with gentle agitation. Gels were imaged and protein bands were quantified using Image Lab software (Bio-Rad Laboratories).

[3] = target: T1, mMAGL (Mus musculus, UniProt O35678); experiment: Native MS (RapidFire) 2-AG substrate assay, purified mouse MAGL; type: biochemical; details: purified mouse MAGL, native MS substrate assay; read-out: IC50 mMAGL
T1 sequence (O35678 1-303): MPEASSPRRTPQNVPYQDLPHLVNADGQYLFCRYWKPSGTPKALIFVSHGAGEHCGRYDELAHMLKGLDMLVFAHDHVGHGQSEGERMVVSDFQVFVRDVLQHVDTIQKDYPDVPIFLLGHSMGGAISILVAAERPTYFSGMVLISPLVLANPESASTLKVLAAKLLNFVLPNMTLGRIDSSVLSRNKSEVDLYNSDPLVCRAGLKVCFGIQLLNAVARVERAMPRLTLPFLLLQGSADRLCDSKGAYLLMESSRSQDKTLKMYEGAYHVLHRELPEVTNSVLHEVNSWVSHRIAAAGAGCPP
Procedure: (§1) In vitro MAGL Inhibition Assay
(§2) Compounds were profiled for MAGL inhibitory activity by determining the enzymatic activity by following the hydrolysis of the natural substrate 2-arachidonoylglycerol (2-AG), resulting in arachidonic acid, which can be followed by mass spectrometry. The 2-AG assay was carried out in 384 well assay plates (PP, Greiner Cat# 784201) in a total volume of 20 µL. Compound dilutions were made in 100% DMSO (VWR Chemicals 23500.297) in a polypropylene plate in 3-fold dilution steps to give a final concentration range in the assay from 12.5 µM to 0.8 pM. 0.25µL compound dilutions (100% DMSO) were added to 9 µL MAGL in assay buffer (50 mM TRIS (GIBCO, 15567-027), 1 mM EDTA (Fluka, 03690-100 mL), 0.01% (v/v) Tween. After shaking, the plate was incubated for 15 min at RT. To start the reaction, 10 µL 2-arachidonoylglycerol in assay buffer was added. The final concentrations in the assay were 50 pM MAGL and 8 µM 2-arachidonoylglyerol. After shaking and 30 min incubation at RT, the reaction was quenched by the addition of 40µL of ACN containing 4µM of d8-arachidonic acid. The amount of arachidonic acid was traced by an online SPE system (Agilent Rapidfire) coupled to a triple quadrupole mass spectrometer (Agilent 6460). A C18 SPE cartridge (G9205A) was used in an ACN/water liquid setup. The mass spectrometer was operated in negative electrospray mode following the mass transitions 303.1 → 259.1 for arachidonic acid and 311.1 → 267.0 for d8-arachidonic acid. The activity of the compounds was calculated based on the ratio of intensities [arachidonic acid / d8-arachidonic acid]. The lowest IC50 value that can be determined with high accuracy is approximately 0.025 nM.

[4] = target: T2, rMAGL (Rattus norvegicus, UniProt Q8R431); experiment: Native MS (RapidFire) 2-AG substrate assay, purified rat MAGL; type: biochemical; details: for IC50: purified rat MAGL, native MS substrate assay, read-out: IC50 rMAGL
T2 sequence (Q8R431 1-303): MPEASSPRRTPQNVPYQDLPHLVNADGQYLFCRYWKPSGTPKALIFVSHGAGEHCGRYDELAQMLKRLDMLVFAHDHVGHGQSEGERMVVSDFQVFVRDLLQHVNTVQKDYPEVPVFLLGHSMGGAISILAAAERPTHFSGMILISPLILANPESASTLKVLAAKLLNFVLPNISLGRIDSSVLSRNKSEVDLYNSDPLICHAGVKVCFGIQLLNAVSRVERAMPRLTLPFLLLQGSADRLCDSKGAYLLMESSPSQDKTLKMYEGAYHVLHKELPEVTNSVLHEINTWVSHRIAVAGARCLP
Procedure: as §1, §2

loss of potency against rat or cynomolgus monkey orthologs ([4]; rat or cynomolgus monkey MAGL)	SMILES	solubility kinetic [1]	labeling selectivity in ABPP (covalent probes) [2]	IC50 [3]	IC50 [4]	selectivity in competitive ABPP (reversible probes) [2]
	O=C(O[C@H](CO)C(F)(F)F)N1CC2(CC(CC3=C4C=CC=[N+]4[B-](F)(F)n4cccc43)C2)C1 [Compound 1]	19 µg/mL (≈ 41.6 µM)	only selective irreversible labeling of the two MAGL isoforms	0.21 nM	0.36 nM	
	O=C(OC(C(F)(F)F)C(F)(F)F)N1CC2(CC(CC3=C4C=CC=[N+]4[B-](F)(F)n4cccc43)C2)C1 [Compound 2]	< 3 µg/mL	only selective irreversible labeling of the two MAGL isoforms	0.33 nM	0.2 nM	
	O=C(OC(C(F)(F)F)C(F)(F)F)N1CC2(CC(CC3=C4C=CC(c5ccc[nH]5)=[N+]4[B-](F)(F)n4cccc43)C2)C1 [Compound 2a]	< 1 µg/mL	only selective irreversible labeling of the two MAGL isoforms	0.79 nM	0.68 nM	
less than 4 fold	O=C1CO[C@H]2CCN(C(=O)N3CC4(CC(CC5=C6C=CC=[N+]6[B-](F)(F)n6cccc65)C4)C3)C[C@H]2N1 [Compound 4]	112 µg/mL (≈ 232 µM)		1.33 nM	2.4 nM	no other potential off-target detectable
	O=C1CO[C@H]2CCN(C(=O)N3CC4(CC(CC5=C6C=CC(c7ccc[nH]7)=[N+]6[B-](F)(F)n6cccc65)C4)C3)C[C@H]2N1 [Compound 4a]	< 0.3 µg/mL		0.18 nM	0.47 nM	no other potential off-target detectable
	O=C(N1CC2(CC(CC3=C4C=CC=[N+]4[B-](F)(F)n4cccc43)C2)C1)N1CC2(CC(n3cnc(C4CC4)n3)C2)C1 [Compound 5]	46 µg/mL (≈ 86.6 µM)		1.03 nM	0.98 nM	no other potential off-target detectable
